Earlier results, collected in patent US6727243B1, “Compositions comprising cefuroxime axetil” (Biochemie Gesellschaft m.b.H., priority 1998, dated 2004).

Conditions: oral administration; after consumption of food versus fastened state

CO/N=C(\C(=O)N[C@@H]1C(=O)N2C(C(=O)OC(C)OC(C)=O)=C(COC(N)=O)CS[C@H]12)c1ccco1 (stereo partly shown) [cefuroxime axetil, 1-acetoxyethyl ester of cefuroxime]
food effect on bioavailability: exhibit a food effect
